Like-named read-outs stand apart in the source and are kept apart here.
Key:
[1] = tested on: HCT-116; test: MTT cytotoxicity assay, HCT-116; type: cell-based; conditions: Homo sapiens, 48 h, mean ± SD of three experiments, read-out: Cancer cell lines IC50, HCT-116
Procedure: (§1) All cell lines were purchased from the Cell Bank of Type Culture Collection of Chinese Academy of Sciences (Shanghai, China). MGC-803 was routinely cultured in RPMI-1640 medium containing 10% FBS and 1% penicillin/streptomycin. MCF-7, HCT-116 and Hela were routinely cultured in medium DMEM/high glucose containing 10% FBS and 1% penicillin/streptomycin. All cell lines were incubated in culture at 37 °C in air with 5% CO2 for 24 h.
(§2) All cell lines were plated in 96-well plates, and each well contains 4000 cells in 100 μL culture medium. Then the cells were treated with genistein or its amino acid derivatives dissolved in DMSO at different doses in a CO2 incubator at 37 °C for 48 h, and DMSO was used as vehicle control. After removing the culture medium, 10 μL MTT and 90 μL blank culture medium were added to each well and incubated for additional 4 h at 37 °C. The absorbance was determined by a microplate-reader at 490 nm.

[2] = tested on: MCF-7; test: MTT cytotoxicity assay, MCF-7; type: cell-based; conditions: Homo sapiens, MCF7, 48 h, mean ± SD of three experiments, read-out: Cancer cell lines IC50, MCF-7
Procedure: as §1, §2

[3] = tested on: Hela; test: MTT cytotoxicity assay, Hela; type: cell-based; conditions: Homo sapiens, 48 h, mean ± SD of three experiments, read-out: Cancer cell lines IC50, Hela
Procedure: as §1, §2

[4] = tested on: MGC-803; test: MTT cytotoxicity assay, MGC-803; type: cell-based; conditions: Homo sapiens, 48 h, mean ± SD of three experiments, read-out: Cancer cell lines IC50, MGC-803
Procedure: as §1, §2

[5] = target: T1, BSA (Bos taurus, UniProt P02769); test: Three-dimensional fluorescence spectroscopy of BSA; type: binding, bovine
T1 construct: purchased Aladdin's Reagent Co., Ltd. (Shanghai, China)
T1 sequence (P02769 25-607): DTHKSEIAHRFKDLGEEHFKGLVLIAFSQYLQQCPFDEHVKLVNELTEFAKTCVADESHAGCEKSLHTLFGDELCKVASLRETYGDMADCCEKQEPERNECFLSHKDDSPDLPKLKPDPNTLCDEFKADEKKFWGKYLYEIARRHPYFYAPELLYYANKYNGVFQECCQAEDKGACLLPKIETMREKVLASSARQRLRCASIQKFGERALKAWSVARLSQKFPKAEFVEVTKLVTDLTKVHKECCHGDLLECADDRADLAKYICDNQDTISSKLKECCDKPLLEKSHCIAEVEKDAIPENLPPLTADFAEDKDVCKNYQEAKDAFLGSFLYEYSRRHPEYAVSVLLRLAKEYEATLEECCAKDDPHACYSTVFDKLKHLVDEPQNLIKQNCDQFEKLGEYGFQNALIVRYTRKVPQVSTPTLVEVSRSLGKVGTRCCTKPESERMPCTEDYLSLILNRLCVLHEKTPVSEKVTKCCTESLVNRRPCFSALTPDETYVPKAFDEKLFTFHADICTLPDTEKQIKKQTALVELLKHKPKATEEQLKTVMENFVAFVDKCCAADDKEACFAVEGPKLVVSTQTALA
Procedure: The 3D fluorescence spectra of genistein and compounds 4a–4d were recorded with scanning excitation wavelength ranged from 200 nm to 300 nm with 10 nm interval, and emission wavelength ranged from 290 nm to 470 nm with 5 nm interval for three times. Other parameters were the same as Section 2.4.1.

[6] = target: T1, BSA; test: Fluorescence quenching of BSA (Stern-Volmer, double-log, van't Hoff); type: binding, bovine; conditions: for K SV (quenching constant): BSA 1 μM, pH 7.4; for ΔGexp: ΔGexp = ΔH − TΔS; for K q (quenching rate constant): τ0 = 10^−8 s; for Kd: read-out: K b (binding constant) (converted); for ΔH / ΔS: van't Hoff, 298-310 K
Procedure: Fluorescence spectra were carried on a F-7000 fluorescence spectrophotometer (Japan) fitted out with a 1.0 cm quartz dish. The excitation wavelength was set at 280 nm with 5/5 nm slit widths, while the emission wavelength ranged from 290 nm to 500 nm at different temperatures. The BSA solution (1 μM) was titrated with genistein and its amino acid derivatives 4a–4d for three times. The final concentrations of genistein and 4a–4d were (0.0, 6.4, 12.8, 19.2, 25.6, 32, 38.4, 44.8, and 51.2) μM.
The Stern–Volmer equation is often applied to reveal the fluorescence quenching mechanism:[19]1 [drawing 1] where F0 and F are the fluorescence intensities of complex […], respectively.[18] [Q] denotes the concentration of quencher. Ksv and Kq are quenching constant and quenching rate constant of BSA, respectively.[20]τ0 is the lifetime of fluorophore in the absence of genistein, 4a–4d and equals to 10^−8 s.[21] […] It can be observed that the Ksv values decreased gradually with rise in temperature in Table 2. Furthermore, Kq values were in the order of 10^12, which were larger than the maximum diffusion collisional rate constant (2.0 × 10^10 M^−1 s^−1).[22]
Double-logarithmic eqn (2) is often used to explore the binding parameters of static quenching, such as binding constant (Kb) and binding sites (n):[23]2 [drawing 2]
To clarify the binding forces between genistein, 4a–4d and BSA, the thermodynamic parameters were studied via the van't Hoff equations:[25]3 [drawing 3] 4 ΔG = −RT ln K = ΔH − TΔSwhere T denotes the experimental temperature, K denotes the binding constant at the corresponding temperature, R is the gas constant.[26] According to Ross and Subramanian's previous research,[27] the characteristic for van der Waals interactions or/and hydrogen bonding is ΔH < 0 and ΔS < 0, for hydrophobic interaction is ΔH > 0 and ΔS > 0, and for electrostatic interactions is ΔH ≈ 0 and ΔS > 0.[28] The calculation results of the thermodynamic parameters were recorded in Table 3.

[7] = Peak 1, [BSA]:[compound] = 1:3, 298 K
[8] = Peak 2, [BSA]:[compound] = 1:3, 298 K
[9] = Peak a (Rayleigh scattering), [BSA]:[compound] = 1:3, 298 K

O=c1c(-c2ccc(O)cc2)coc2cc(O)cc(O)c12 [Genistein]
IC50 [1]: > 100 µM
IC50 [2]: > 100 µM
IC50 [3]: > 100 µM
IC50 [4]: > 100 µM
3D fluorescence intensity [5, 7]: 259.2 a.u
3D fluorescence peak position λex/λem [5, 7]: 230/355
3D fluorescence intensity [5, 8]: 333.2 a.u
3D fluorescence peak position λex/λem [5, 8]: 280/355
3D fluorescence intensity [5, 9]: 159.6 a.u
3D fluorescence peak position λex/λem [5, 9]: 290/295
n (binding sites) ([6]; T 298 K): 1.42
K SV (quenching constant) ([6]; T 298 K): 6.2416 ± 0.0984 10^4 M^−1
ΔGexp ([6]; T 298 K): -37.69 kJ/M
K q (quenching rate constant) ([6]; T 298 K): 6.2416 10^12 M^−1 s^−1
Kd ([6]; T 298 K): 0.256 µM
n (binding sites) ([6]; T 306 K): 1.39
K SV (quenching constant) ([6]; T 306 K): 5.3472 ± 0.1242 10^4 M^−1
ΔGexp ([6]; T 306 K): -37.11 kJ/M
K q (quenching rate constant) ([6]; T 306 K): 5.3472 10^12 M^−1 s^−1
Kd ([6]; T 306 K): 0.415 µM
n (binding sites) ([6]; T 310 K): 1.37
K SV (quenching constant) ([6]; T 310 K): 4.3285 ± 0.1005 10^4 M^−1
ΔGexp ([6]; T 310 K): -36.83 kJ/M
K q (quenching rate constant) ([6]; T 310 K): 4.3285 10^12 M^−1 s^−1
Kd ([6]; T 310 K): 0.671 µM
ΔH [6]: -59.09 kJ/M
ΔS [6]: −71.83 J K^−1 M^−1

COC(=O)C(NC(=O)COc1cc(O)c2c(=O)c(-c3ccc(O)cc3)coc2c1)C(C)C (stereo not drawn) [4c]
IC50 [1]: 42.64 ± 0.15 µM
IC50 [2]: 99.73 ± 0.11 µM
IC50 [3]: 82.71 ± 0.15 µM
IC50 [4]: 33.53 ± 0.13 µM
3D fluorescence intensity [5, 7]: 254.6 a.u
3D fluorescence peak position λex/λem [5, 7]: 230/355
3D fluorescence intensity [5, 8]: 338.3 a.u
3D fluorescence peak position λex/λem [5, 8]: 280/355
3D fluorescence intensity [5, 9]: 210.9 a.u
3D fluorescence peak position λex/λem [5, 9]: 290/295
n (binding sites) ([6]; T 298 K): 1.54
K SV (quenching constant) ([6]; T 298 K): 6.2575 ± 0.1717 10^4 M^−1
ΔGexp ([6]; T 298 K): -41.29 kJ/M
K q (quenching rate constant) ([6]; T 298 K): 6.2575 10^12 M^−1 s^−1
Kd ([6]; T 298 K): 0.084 µM
n (binding sites) ([6]; T 306 K): 1.53
K SV (quenching constant) ([6]; T 306 K): 5.0010 ± 0.1067 10^4 M^−1
ΔGexp ([6]; T 306 K): -37.63 kJ/M
K q (quenching rate constant) ([6]; T 306 K): 5.0010 10^12 M^−1 s^−1
Kd ([6]; T 306 K): 0.119 µM
n (binding sites) ([6]; T 310 K): 1.24
K SV (quenching constant) ([6]; T 310 K): 4.8646 ± 0.1370 10^4 M^−1
ΔGexp ([6]; T 310 K): -35.81 kJ/M
K q (quenching rate constant) ([6]; T 310 K): 4.8646 10^12 M^−1 s^−1
Kd ([6]; T 310 K): 2.01 µM
ΔH [6]: -177.34 kJ/M
ΔS [6]: −456.55 J K^−1 M^−1

COC(=O)C(C)NC(=O)COc1cc(O)c2c(=O)c(-c3ccc(O)cc3)coc2c1 (stereo not drawn) [4b]
IC50 [1]: > 100 µM
IC50 [2]: 21.3 ± 2.24 µM
IC50 [3]: 90.27 ± 0.47 µM
IC50 [4]: 12.08 ± 0.06 µM
3D fluorescence intensity [5, 7]: 199.8 a.u
3D fluorescence peak position λex/λem [5, 7]: 230/355
3D fluorescence intensity [5, 8]: 242.6 a.u
3D fluorescence peak position λex/λem [5, 8]: 280/355
3D fluorescence intensity [5, 9]: 140.7 a.u
3D fluorescence peak position λex/λem [5, 9]: 290/295
K SV (quenching constant) ([6]; T 298 K): 8.0160 ± 0.1379 10^4 M^−1
ΔGexp ([6]; T 298 K): -42.01 kJ/M
K q (quenching rate constant) ([6]; T 298 K): 8.0160 10^12 M^−1 s^−1
Kd ([6]; T 298 K): 0.0649 µM
n (binding sites) ([6]; T 306 K): 1.53
K SV (quenching constant) ([6]; T 306 K): 6.9409 ± 0.0956 10^4 M^−1
ΔGexp ([6]; T 306 K): -38.43 kJ/M
K q (quenching rate constant) ([6]; T 306 K): 6.9409 10^12 M^−1 s^−1
Kd ([6]; T 306 K): 0.0794 µM
n (binding sites) ([6]; T 310 K): 1.23
ΔGexp ([6]; T 310 K): -36.65 kJ/M
Kd ([6]; T 310 K): 1.55 µM
ΔH [6]: -175.21 kJ/M
ΔS [6]: −446.98 J K^−1 M^−1

COC(=O)CNC(=O)COc1cc(O)c2c(=O)c(-c3ccc(O)cc3)coc2c1 [4a]
IC50 [1]: 65.3 ± 2.91 µM
IC50 [2]: > 100 µM
IC50 [3]: 66.6 ± 3.6 µM
IC50 [4]: 24.4 ± 1.27 µM
3D fluorescence intensity [5, 7]: 249.8 a.u
3D fluorescence peak position λex/λem [5, 7]: 230/355
3D fluorescence intensity [5, 8]: 300.8 a.u
3D fluorescence peak position λex/λem [5, 8]: 280/355
3D fluorescence intensity [5, 9]: 167.9 a.u
3D fluorescence peak position λex/λem [5, 9]: 290/295
n (binding sites) ([6]; T 298 K): 1.86
K SV (quenching constant) ([6]; T 298 K): 9.3690 ± 0.1055 10^4 M^−1
ΔGexp ([6]; T 298 K): -49.21 kJ/M
K q (quenching rate constant) ([6]; T 298 K): 9.3690 10^12 M^−1 s^−1
Kd ([6]; T 298 K): 0.0023 µM
n (binding sites) ([6]; T 306 K): 1.72
K SV (quenching constant) ([6]; T 306 K): 9.0645 ± 0.0720 10^4 M^−1
ΔGexp ([6]; T 306 K): -47.21 kJ/M
K q (quenching rate constant) ([6]; T 306 K): 9.0645 10^12 M^−1 s^−1
Kd ([6]; T 306 K): 0.00952 µM
n (binding sites) ([6]; T 310 K): 1.66
K SV (quenching constant) ([6]; T 310 K): 7.7362 ± 0.1223 10^4 M^−1
ΔGexp ([6]; T 310 K): -46.22 kJ/M
K q (quenching rate constant) ([6]; T 310 K): 7.7362 10^12 M^−1 s^−1
Kd ([6]; T 310 K): 0.0153 µM
ΔH [6]: -123.52 kJ/M
ΔS [6]: −249.37 J K^−1 M^−1

— PMC9085648, “Synthesis of novel genistein amino acid derivatives and investigation on their interactions with bovine serum albumin by spectroscopy and molecular docking” (RSC Advances, 2018)
